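A five-concentration, 48-hour dose response in 96-well plates underlies each endpoint, interpolated linearly between surrounding concentrations. GI50 is the concentration that inhibits growth by half. TGI denotes the concentration required for complete inhibition of growth.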
Key:
Assay in all cases: DTP human tumour cell line panel, 48 h
[1] = tested on: RXF 393 renal
[2] = tested on: NCI-H522 lung
[3] = tested on: 786-0 renal
[4] = tested on: OVCAR-4 ovarian
[5] = tested on: UACC-62 melanoma
[6] = tested on: HS 578T breast
[7] = tested on: HCT-116 colon
[8] = tested on: SR leukemia
[9] = tested on: MOLT-4 leukemia
[10] = tested on: TK-10 renal
[11] = tested on: SNB-19 CNS
[12] = tested on: SF-268 CNS
[13] = tested on: NCI-H23 lung
[14] = tested on: NCI-H226 lung
[15] = tested on: MDA-MB-435
[16] = tested on: MDA-MB-231 breast
[17] = tested on: EKVX NSCLC
[18] = tested on: SNB-75 CNS
[19] = tested on: COLO 205 colon
[20] = tested on: DU-145 prostate
[21] = tested on: MDA-MB-468 breast
[22] = tested on: HCT-15 colon
[23] = tested on: SF-539 CNS
[24] = tested on: SK-MEL-5 melanoma
[25] = tested on: U251 CNS
[26] = tested on: HT29 colon
[27] = tested on: CAKI-1 renal
[28] = tested on: SW-620 colon
[29] = tested on: SF-295 CNS
[30] = tested on: A549 NSCLC
[31] = tested on: SK-MEL-2 melanoma
[32] = tested on: A498 renal
[33] = tested on: NCI/ADR-RES ovarian
[34] = tested on: UO-31 renal
[35] = tested on: MALME-3M melanoma
[36] = tested on: BT-549 breast
[37] = tested on: KM12 colon
[38] = tested on: K-562 leukemia
[39] = tested on: ACHN renal
[40] = tested on: M14 melanoma
[41] = tested on: IGROV1 ovarian
[42] = tested on: SK-MEL-28 melanoma
[43] = tested on: RPMI-8226 leukemia
[44] = tested on: UACC-257 melanoma
[45] = tested on: T-47D breast
[46] = tested on: OVCAR-5 ovarian
[47] = tested on: LOX IMVI melanoma
[48] = tested on: SN12C renal
[49] = tested on: PC-3 prostate
[50] = tested on: OVCAR-3 ovarian
[51] = tested on: HCC-2998 colon
[52] = tested on: CCRF-CEM leukemia
[53] = tested on: HOP-92 NSCLC
[54] = tested on: OVCAR-8 ovarian
[55] = tested on: SK-OV-3 ovarian
[56] = tested on: NCI-H460 lung
[57] = tested on: MCF7 breast
[58] = tested on: HOP-62 NSCLC
[59] = tested on: HL-60(TB) leukemia

Which results are given for `O=C(CSc1nnc(-c2ccc(-c3nc4ccccc4[nH]3)cc2)o1)Nc1ccc(Cl)cc1`?
GI50 [1]: 4.41 µM; TGI [1]: 16.7 µM; GI50 [2]: 4.94 µM; TGI [2]: 21.6 µM; GI50 [3]: 2.04 µM; TGI [3]: 4.45 µM; GI50 [4]: 9.74 µM; TGI [4]: 22.2 µM; GI50 [5]: 11.4 µM; TGI [5]: 23.9 µM; GI50 [6]: 11.9 µM; TGI [6]: 42.6 µM; GI50 [7]: 4.14 µM; TGI [7]: 17.3 µM; GI50 [8]: 10.1 µM; TGI [8]: > 100 µM; GI50 [9]: 4.42 µM; TGI [9]: > 100 µM; GI50 [10]: 24.8 µM; TGI [10]: 66.9 µM; GI50 [11]: 14.6 µM; TGI [11]: 29.7 µM; GI50 [12]: 4.14 µM; TGI [12]: 20 µM; GI50 [13]: 7.12 µM; TGI [13]: 23.2 µM; GI50 [14]: 2.5 µM; TGI [14]: 9.38 µM; GI50 [15]: 3.3 µM; TGI [15]: 13.5 µM; GI50 [16]: 11.4 µM; TGI [16]: 24 µM; GI50 [17]: 10.8 µM; TGI [17]: 28.1 µM; GI50 [18]: 2.44 µM; TGI [18]: 14.5 µM; GI50 [19]: 23 µM; TGI [19]: > 100 µM; GI50 [20]: 4.62 µM; TGI [20]: 17.4 µM; GI50 [21]: 14.7 µM; TGI [21]: 29.6 µM; GI50 [22]: 6.16 µM; TGI [22]: 23.9 µM; GI50 [23]: 5.26 µM; TGI [23]: 17.9 µM; GI50 [24]: 12.6 µM; TGI [24]: 26.7 µM; GI50 [25]: 15.4 µM; TGI [25]: 30.8 µM; GI50 [26]: 6.62 µM; TGI [26]: 30 µM; GI50 [27]: 3.51 µM; TGI [27]: 13.2 µM; GI50 [28]: 3.58 µM; TGI [28]: 15.8 µM; GI50 [29]: 7.2 µM; TGI [29]: 22 µM; GI50 [30]: 3.65 µM; TGI [30]: 16.4 µM; GI50 [31]: 15.9 µM; TGI [31]: 35.3 µM; GI50 [32]: 18.6 µM; TGI [32]: 42.9 µM; GI50 [33]: 14.8 µM; TGI [33]: 85.7 µM; GI50 [34]: 13 µM; TGI [34]: 25.7 µM; GI50 [35]: 3.37 µM; TGI [35]: 13.2 µM; GI50 [36]: 3.4 µM; TGI [36]: 14 µM; GI50 [37]: 10.6 µM; TGI [37]: 39.5 µM; GI50 [38]: 4.59 µM; TGI [38]: > 100 µM; GI50 [39]: 5.05 µM; TGI [39]: 17.9 µM; GI50 [40]: 4.9 µM; TGI [40]: 18.3 µM; GI50 [41]: 15.1 µM; TGI [41]: 31.3 µM; GI50 [42]: 4.02 µM; TGI [42]: 14.9 µM; GI50 [43]: 8.39 µM; TGI [43]: 80.3 µM; GI50 [44]: 9.3 µM; TGI [44]: 26.9 µM; GI50 [45]: 9.84 µM; TGI [45]: 44.1 µM; GI50 [46]: 14.8 µM; TGI [46]: 36.6 µM; GI50 [47]: 1.94 µM; TGI [47]: 4.4 µM; GI50 [48]: 10.1 µM; TGI [48]: 22.3 µM; GI50 [49]: 3.9 µM; TGI [49]: 16.7 µM; GI50 [50]: 5.78 µM; TGI [50]: 19.1 µM; GI50 [51]: 24.5 µM; TGI [51]: > 100 µM; GI50 [52]: 5.58 µM; TGI [52]: 33.1 µM; GI50 [53]: 5.06 µM; TGI [53]: 21.5 µM; GI50 [54]: 5.91 µM; TGI [54]: 22.3 µM; GI50 [55]: 18.4 µM; TGI [55]: 43.7 µM; GI50 [56]: 2.93 µM; TGI [56]: 10.9 µM; GI50 [57]: 3.73 µM; TGI [57]: 19.3 µM; GI50 [58]: 5.74 µM; TGI [58]: 22.1 µM; GI50 [59]: 11.1 µM; TGI [59]: > 100 µM
